# The METLIN SMRT retention time set (Domingo-Almenara et al. 2019)
# Test: gradient 5% acetonitrile 3 min, to 50% in 2 min, to 85% in 15 min, held 3 min, 100 µL/min
# Conditions: column: Zorbax Extend-C18 2.1 x 50 mm; eluents: water / acetonitrile, 0.1% formic acid
# Outline: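 Data were gathered over 3 months by HPLC coupled to a quadrupole time-of-flight mass spectrometer, operated in positive and negative ionization mode. Mixtures of ~100 pure standards ran on a Zorbax Extend-C18 column (2.1 × 50 mm, 1.8 μm) at 100 μL/min, with water and acetonitrile each containing 0.1% formic acid and dead and dwell volumes of 40 μL and 900 μL. Retention time was read from adduct peaks picked by computer and checked manually.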
row,SMILES,RP-LC retention time
1,CCN1CCCn2cc(S(=O)(=O)NCc3ccccc3Cl)cc2C1=O,750 s
2,CCc1cc(=O)n(CC(=O)NCc2cccs2)c(-c2ccccc2)n1,1040 s
3,CCOc1ccccc1NS(=O)(=O)c1ccc2c(c1)CCCC(=O)N2,783 s
4,O=C(NCCc1ccccc1)N1CCN(CCn2c(-c3ccncc3)nc3cccnc32)CC1,593 s
5,O=C1COc2cc(S(=O)(=O)N3CCCC3C(=O)NCc3ccccc3)c(Cl)cc2N1 (stereo not given),718 s
6,COc1c(C(=O)NC(C)(C)C)sc2ccc(F)cc12,1080 s
7,COc1ccccc1OC(C)C(=O)N1CCN(c2nc(CN3CCOCC3)cs2)CC1 (stereo not given),621 s
8,CN1CCN(Cc2nc3cc(NC(=O)C4CCCCC4)ccc3n2C)CC1,574 s
9,O=C(Cc1cc(-c2cc3ccccc3o2)on1)NCCc1c[nH]c2ccccc12,883 s
10,CCc1ccc(C(=O)N2CCC(COc3ccc(C(=O)NC(C)C)cc3)CC2)cc1,941 s
11,CC1CCc2c(sc3nc(CCC(=O)N4CCC(C(N)=O)CC4)[nH]c(=O)c23)C1 (stereo not given),697 s
12,CN(C)C(=O)c1cccc(COc2ccc(N3C(N)=NC(N)=NC3(C)C)cc2Cl)c1,659 s
13,CCOC(=O)c1ccccc1NC(=O)N1CCN(c2ccc(=O)n(-c3ccccc3)n2)CC1,995 s
14,Cc1ccc(C)c(S(=O)(=O)N2[C@H]3CC[C@@H]2c2cnc(-c4ccc(F)cc4)nc2C3)c1,1270 s
15,Cc1ccc(-c2nc3cccnc3n2CCCNC(=O)NCc2ccco2)cc1,674 s
16,Cc1ccc(-c2cc(C(=O)N3CCC(NC(=O)Cc4cccs4)CC3)[nH]n2)c(C)c1,776 s
17,CCc1cccc(NC(=O)c2cc3sccc3n2Cc2ccc(F)cc2)c1,1260 s
18,O=C(NCc1cccc(Br)c1)c1nc(Cn2c(=O)oc3ccccc32)no1,895 s
19,Cn1nc(-c2nc(C3CC3)no2)c2c1CCN(S(=O)(=O)c1cccs1)C2,861 s

row,SMILES,RP-LC retention time
1,Cc1cc(C(=O)NCC2CCN(C(=O)Oc3ccccc3)CC2)c(C)o1,829 s
2,Cc1ccc(-c2ncccc2CNS(=O)(=O)Cc2ccccc2F)cc1,693 s
3,CCCN1C(=O)c2cc(C(=O)N3CCN(C4CCCCC4)CC3)nn2CC1(C)C(=O)NC1CCCC1 (stereo not given),660 s
4,COc1ccc(-c2nc(C)cc(C)c2CNS(=O)(=O)c2cccc(C#N)c2)cc1,640 s
5,CCCN1CCn2cc(S(=O)(=O)Nc3ccccc3OC)cc2C1=O,733 s
6,Cc1oc(-c2ccccc2)nc1CN1C(=O)C(O)(c2cccc(F)c2)c2ccccc21 (stereo not given),1100 s
7,COc1cccc(CNC2=NCCNC23CCN(S(=O)(=O)c2ccc(C)cc2)CC3)c1,717 s
8,Cc1cc(N2CCN(C(=O)Nc3ccccc3C)CC2)nc(N2CCOCC2)n1,613 s
9,COC(=O)c1ccc2c(=O)n(-c3ccc(F)c(Cl)c3)c(N3CCN(c4ccccn4)CC3)nc2c1,762 s
10,COc1ccc(-c2cn3c(CC(=O)NCc4ccccc4)csc3n2)cc1OC,693 s
11,COc1cc(OC)cc(-c2nc(-c3ccc4c(c3)ncn4CCN3CCCC3)no2)c1,684 s
12,COc1ccc(NC(=O)N2CCCC2c2nc(-c3cccc(OC)c3)no2)cc1 (stereo not given),875 s
13,Clc1ccc(-c2nc(NCc3cccs3)c3ccccc3n2)cc1,842 s
14,O=C(C1CCCN(c2nn3c(=O)c4c(nc3s2)CCCC4)C1)N1CCC2(CC1)OCCO2 (stereo not given),674 s
15,CC(C)c1ccc(-n2nc(N3CCN(C(=O)Cn4ccnc4)CC3)ccc2=O)cc1,731 s
16,COCCCNC(=O)C1c2ccccc2C(=O)N(Cc2ccccc2)C12CCCC2 (stereo not given),846 s
17,CCOc1ccc(S(=O)(=O)N2CCCC(C(=O)NCc3cccnc3)C2)cc1C (stereo not given),685 s
18,O=C(O)c1cnc(N2CCOCC2)nc1-c1cccnc1,569 s
19,CCOc1ccc(C(=O)N2CCN(c3cc(-c4ccc(Cl)cc4)[nH]n3)CC2)cc1OCC,916 s

row,SMILES,RP-LC retention time
1,Cc1ccc(C(=O)N2CCCC(COc3ccc(C(=O)N4CCOCC4)cc3)C2)cc1 (stereo not given),793 s
2,O=C(c1cc(F)ccc1Cl)N1CCN(c2ncccc2-c2nnc(C3CC3)o2)CC1,834 s
3,COC(=O)c1ccc(NC(=O)C2CCN(S(=O)(=O)c3ccc4c(c3)sc(=O)n4C)CC2)cc1,854 s
4,CCOC(=O)C1CCN(c2ncnc3c2cnn3-c2ccccc2)CC1,944 s
5,CCc1cc(=O)n(CC(=O)NCc2cccc(OC)c2)c(N)n1,584 s
6,Cc1ccc(F)cc1NS(=O)(=O)c1cc2c(s1)CCN(C(=O)C1CC1)C2,839 s
7,Cc1nc(-c2noc(-c3cccc(F)c3)n2)cn1CC(=O)Nc1ccc(F)cc1,874 s
8,O=C(Nc1ccccc1)N1CCC(n2c(-c3ccco3)nc3cccnc32)C1 (stereo not given),716 s
9,CC1(C)CC[C@]2(C(=O)n3ccnc3)CC[C@]3(C)[C@H](C(=O)C=C4[C@@]5(C)C=C(C#N)C(=O)C(C)(C)[C@@H]5CC[C@]43C)[C@@H]2C1,1260 s
10,CCCNC(=O)N1CCCN(C2=NS(=O)(=O)C(c3ccc(C)cc3)=C2C)CC1,776 s
11,CCCN1C(=O)C(CC(=O)NC2CCCCC2)Sc2ncccc21 (stereo not given),803 s
12,N#Cc1ccc(C(=O)N2CCCC(COc3ccc(C(=O)NC4CC4)cc3)C2)cc1 (stereo not given),757 s
13,CC(C)CN1CCN(Cc2nc(-c3ccc(N4CCCC(C)C4)nc3)no2)CC1 (stereo not given),645 s
14,Cn1cc(NC(=O)Nc2ccc(F)c(F)c2)c2ccccc21,848 s
15,Cc1ccc(C2=NC3(CCN(C(=O)c4ccco4)CC3)ON2)cc1,747 s
16,Cc1cccc(N2C(=O)CN(S(C)(=O)=O)CC2(C)C(=O)NC2CCCCCCC2)c1C (stereo not given),951 s
17,COc1ccc2c(c1)CCc1sc(NC(=O)c3ccc(Cl)cc3)nc1-2,1160 s
18,Cc1ccc(-n2c(C)c(C)c3c(=O)n(CC(=O)NC4CCCC4)cnc32)cc1,834 s

# The next lines start with the values.
row,RP-LC retention time,SMILES
1,861 s,O=C(Cn1ccn2nc(-c3ccccc3)c(CO)c2c1=O)N1CCCc2ccccc21
2,1190 s,Cc1nn(-c2ccc(F)cc2)c2nc(N3CCCC(C(=O)NCc4ccccc4Cl)C3)sc12 (stereo not given)
3,998 s,CCc1ccc(NC(=O)C2CCN(S(C)(=O)=O)c3cc(C)ccc3O2)cc1 (stereo not given)
4,967 s,CCCn1c(=O)sc2cc(S(=O)(=O)N3CCC(C(=O)NC4CCCCC4)CC3)ccc21
5,877 s,Cc1ccc(NC(=O)N2CCC(n3cnc4c(Cl)cccc4c3=O)CC2)cc1C
6,1360 s,CCc1ccc(NC(=O)C2CCCN(c3nc4c(s3)c(C)nn4-c3ccc(OC)cc3)C2)cc1 (stereo not given)
7,864 s,CCN(CC)C(=O)c1ccc2c(c1)N(CC(=O)NCCC1=CCCCC1)C(=O)CS2
8,659 s,CN(C)CCNC(=O)COc1ccccc1-c1nnc(-c2ccccc2)o1
9,1280 s,CCOc1ccc(NC(=O)c2c(O)c3cccnc3n(-c3ccc(F)cc3)c2=O)cc1
10,801 s,O=C(Nc1ccc2c(c1)OCO2)C1CC(=O)N(CCc2c[nH]c3ccc(Cl)cc23)C1 (stereo not given)
11,792 s,CCN1C(=O)CCc2cc(NC(=O)Cc3c(F)cccc3Cl)ccc21
12,684 s,CCOC(=O)c1cnc2nc(C)ccc2c1Nc1ccccc1F
13,658 s,CN(C)c1ccc(CNC(=O)c2nnc(-c3ccc(S(=O)(=O)N(C)C)cc3)o2)cc1
14,692 s,CCC(CC)NC(=O)[C@@H]1[C@H](c2cc(OC)c(OC)c(OC)c2)c2cc3c(cc2[C@H](O)[C@H]1CO)OCO3
15,650 s,Cc1c2cnn(CC(=O)N3CCN(c4ccccn4)CC3)c(=O)c2c(C)n1Cc1ccccc1F
16,1070 s,CN(C)c1cccc(-c2nn3c(CSc4ccccc4)nnc3s2)c1
17,1130 s,Cc1ccc(N2CN(Cc3ccccc3)S(=O)(=O)c3cccnc32)cc1
18,1050 s,O=C(NC1CCCCC1)N1CCc2nc(-c3ccc(Cl)cc3)ncc2C1
19,605 s,O=C(NCCN1CCN(C(=O)NC(c2ccccc2)c2ccccc2)CC1)c1ccsc1
20,1190 s,COc1ccc(-c2csc(Nc3ccc(C)cc3)n2)cc1
21,985 s,O=c1c2cc(-c3ccc4c(c3)OCO4)nn2ccn1Cc1ccccc1F
22,916 s,Cc1ccc(C)c(S(=O)(=O)NCc2c(-c3ccccc3)nc3sc(C)nn23)c1
23,860 s,CCOc1ccc(OCC)c(NC(=O)CSc2cc(N3CCC(C(=O)NC4CC4)CC3)ncn2)c1
24,724 s,Cc1cc(C)n2nc(SCC(=O)Nc3ccc(F)cc3)nc2n1
25,918 s,Cc1ccccc1-c1noc(Cn2ccn(-c3ccc(Cl)cc3)c(=O)c2=O)n1
26,955 s,Cc1ccc(NC(=O)c2ccccc2[N+](=O)[O-])c(C(=O)c2ccccc2)c1
27,1020 s,CC(C)Cn1cc(S(=O)(=O)Nc2ccccc2Cl)c2cccnc21
28,626 s,CC(=O)Nc1ccc(CCc2nc3ccc(C(=O)NC(C)Cc4ccco4)cc3[nH]2)cc1 (stereo not given)
29,826 s,CCOC(=O)c1c(C)oc2nc(C)nc(NCCCN3CCN(c4ccccc4)CC3)c12
